Assay results from patent US20260193227A1, “THERAPEUTIC COMPOUNDS AND METHODS” (UNIVERSITY OF IOWA RESEARCH FOUNDATION, priority 2022, published 2026).
Entries after “also recorded” stand apart in the source; their conditions may differ.

Experiments:
EUFA423F cells = experiment: CellTiter-Glo cell viability, BRCA2-mutated cells; format: cell-based, human; settings: for toxicity towards EUFA423 cells: BRCA2-mutated cells, yes/no; for toxicity / selective toxicity towards BRCA2-mutated cells in cell viability assays: EUFA423F versus EUFA423F HA
Source text: Cell lines: EUFA423F cells that are derived from a Fanconi Anemia patient with complementation group D1 and have biallelic mutations (7691 insAT and 9900 insA) in BRCA2 that result in two different truncated forms of BRCA2 (Howlett N G, et al., Science (New York, NY). 2002; 297(5581):606-9) and its counterpart complemented with expression vector for full-length BRCA2 (EUFA HA) were a generous gift from Dr. Simon Powell, Molecular Biology Program, Radiation Oncology, Sloan-Kettering Cancer Center, New York, NY).
Cell proliferation assay: Selective toxicity of the compounds towards human BRCA2 deficient cells was tested in EUFA423F and its complement EUFA423F HA using CellTiter-Glo® Luminescent Cell Viability Assay (Promega, Madison, WI). The cell lines were maintained in DMEM (Gibco/ThermoFisher Scientific, Waltham, MA) supplemented with 10% FBS and 10 mM HEPES (Gibco/ThermoFisher Scientific, Waltham, MA). EUFA423F HA cells were routinely supplemented with G418 in order to maintain the BRCA2 expression plasmid. Both cell lines were seeded in sterile tissue culture treated, white opaque 384-well plates (Perkin Elmer Inc., Waltham, MA) 3000 cells/well for EUFA423F HA and 2500 cells/well for EUFA423F) and allowed to adhere for 24 hours. Compounds dissolved in DMSO were added in the concentration range of 0-100 μM. Controls were treated with equivalent DMSO volumes. The cells were treated with compounds for 72 hours (to ensure that all cells experienced at least two S-phases). Post treatment, the cells were washed, treated with the CellTiter-Glo® reagent was added and the plate was analyzed as using a Gen5 (ver2.1) luminosity plate reader. The luminescence that reports on ATP generation by the surviving cells was normalized for the DMSO treated control as 100%. The normalized luminescence (average±standard deviation for at least three independent measurements obtained with different cell passages) was plotted in GraphPad Prism as a function of compound concentration. Clonogenic Survival: EUFA423F and EUFA423F HA cells were seeded in a 96 well plate. Compounds dissolved in DMSO were added to final concentrations of 0, 50, and 100 μM for the compound of Example 8 and the compound of Example 1, and 0, 5, and 10 μM for the compounds of Examples 2-7. The cells were treated with compounds for 72 hours. Post treatment, cell cultures were harvested by collecting all non-adherent cells in the well, trypsinization of all adherent cells, combining, pelleting and then resuspending in fresh media. Cultures treated with DMSO only were subsequently counted using a hemocytometer and plated at a density of 2000, 200 and 20 cells per well in 6-well culture plates, equal volumes of cultures were plated each inhibitor concentration. Each treatment and cell density conditions for both cell lines were plated in triplicate. After expanding the colonies for a period of 8 days, cultures were fixed with a solution of 70% ethanol and crystal violet for clonogenic survival analysis. Pictures of individual wells were taken using GelCount (Version 1.3.0.4) by Oxford Optronix (Abingdon UK). A colony had to contain at least 50 cells to be counted. The number of surviving colonies following treatment are presented as a percentage of number of colonies in the experiment where the cells were treated with DMSO only.

[1] = Solubility in cell culture medium; format: physicochemical; settings: plasma or biological fluid

SMILES	toxicity towards EUFA423 cells (EUFA423F cells)	toxicity / selective toxicity towards BRCA2-mutated cells in cell viability assays (EUFA423F cells; CellTiter-Glo, 72 hours, listed as Z56)	IC50 (EUFA423F cells; Homo sapiens, CellTiter-Glo, 72 hours, read-out: IC50 value for the EUFA423F viability experiments) [µM]	solubility [1] [µM]	toxicity / selective toxicity towards BRCA2-mutated cells in cell viability assays (EUFA423F cells; CellTiter-Glo, 72 hours, listed as Z99)
COc1ccccc1NS(=O)(=O)c1cc(C(=O)O)ccc1C [Example 8]	yes	toxicity only towards BRCA2 mutant cells; also recorded: selectively toxic to BRCA2-mutated cells	32 ± 12.1		
O=C(Cn1cccc([N+](=O)[O-])c1=O)c1c[nH]c2ccccc12 [Example 1]	yes			> 100	selectively toxic; also recorded: shows toxicity towards BRCA2-mutated cells
